Measurements published in patent US9089499B2, “Para-coumaric acid or para-hydroxycinnamic acid derivatives and their use in cosmetic or dermatological compositions” (BASF Beauty Care Solutions France S.A.S., priority 2005, dated 2015).
Where two headings read alike, the source gives them in different places.

What was measured:
[1] = test system: normal human melanocytes; assay: Cytotoxicity on normal human melanocytes, PNPP assay; type: cell-based; settings: 24 hours, relative to untreated wells
Experimental: The cytotoxicity of the active agents is studied on normal human melanocytes in 24-well plates, via assay with PNPP (P-nitrophenyl phosphate), this substance being converted into p-nitrophenol via the intracellular acid phosphatases of viable cells. The absorbance of p-nitrophenol at 405 nm is directly proportional to the number of viable cells.
The active agents are tested at 2 different concentrations (10^−4 M and 10^−5 M) and added to the culture medium and incubated at 37° C. for 24 hours. The assay with PNPP is performed on the cell lawn and the results are expressed as a percentage of viability relative to the negative control (untreated wells).

[2] = Antiradical activity, acellular DPPH model; settings: DPPH 30 minutes, absorbance 520 nm
Experimental: The antiradical activity of the derivatives derived from the syntheses described above was evaluated in an in vitro acellular model using DPPH.
1,1-Diphenyl 2-picryihydrazyl, on account of its paramagnetic structure, can accept an electron or a hydrogen radical to become a stable diamagnetic molecule. This free radical, which is purple coloured in ethanol, has a strong absorption band at 520 nm.
The addition of a compound that provides electrons results in a decolorization of the 1,1-diphenyl 2-picrylhydrazyl that is proportional to the number of electrons taken up by the radical, which may be monitored by measuring the absorbance at 520 nm.
DPPH is incubated for 30 minutes in the presence of the derivatives described above, tested at a concentration of 10^−5M, or alone for the control. At the end of the incubation, the antiradical activity of the above derivatives is evaluated by measuring the absorbance of the solution at 520 nm.
The antiradical activity of each test product is calculated according to the formula, as a percentage: 100−((OD520 in the presence of the test compound/OD520 in the absence of compound)×100)

[3] = target: T1, Human tyrosinase (Homo sapiens, UniProt P14679); assay: Inhibition of human tyrosinase after 24 h application to normal human melanocytes in monolayer; type: cell-based; settings: for inhibition at 1000 µM: 10^−3 M
T1 construct: endogenous in cells; host or cells: normal human melanocytes (abdominal surgery; several donors of fair, brown and black phototypes)
T1 sequence (P14679 19-529): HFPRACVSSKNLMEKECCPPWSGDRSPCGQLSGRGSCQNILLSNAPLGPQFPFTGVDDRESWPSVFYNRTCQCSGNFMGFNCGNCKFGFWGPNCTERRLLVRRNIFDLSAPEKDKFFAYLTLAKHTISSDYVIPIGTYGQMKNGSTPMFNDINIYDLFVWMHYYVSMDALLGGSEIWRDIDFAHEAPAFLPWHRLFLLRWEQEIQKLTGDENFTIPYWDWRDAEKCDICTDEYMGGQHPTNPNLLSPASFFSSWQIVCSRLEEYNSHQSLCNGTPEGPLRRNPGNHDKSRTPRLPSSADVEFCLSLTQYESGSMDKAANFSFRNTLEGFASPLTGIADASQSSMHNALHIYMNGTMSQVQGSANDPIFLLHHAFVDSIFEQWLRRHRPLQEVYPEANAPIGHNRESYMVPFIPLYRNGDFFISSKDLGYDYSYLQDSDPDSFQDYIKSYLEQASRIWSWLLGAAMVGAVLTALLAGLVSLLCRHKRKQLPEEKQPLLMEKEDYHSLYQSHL
Experimental: Normal human melanocytes (obtained from abdominal surgery) are seeded in 24-well plates at a rate of 80 000 cells per well. They are cultured to confluence and the active agents are applied for 24 hours to the culture media. After 24 hours, the media are removed and the melanocytes are detached via mechanical action. An extraction is performed via a thermal shock and the supernatants are then recovered and incubated with MBTH (Sigma) and L-dopa (Sigma). The OD at 490 nm is measured after 30 minutes, and the tyrosinase inhibition is calculated by relating the OD at 490 nm to the protein content (measured in each culture well) of the test relative to the ratio: OD 490 nm/protein concentration of the negative control (untreated control).
The compounds derived from the examples mentioned above were tested on melanocytes derived from various donors but of fair phototype, according to the protocol described in Example 29. The donors tested are as follows: • donor S (donor tested in Example 12): • donor 1: • donor 2: • donor 3
The compound derived from Example 1 is tested on cultures of melanocytes obtained from 2 donors of brown phototype and from one donor of black phototype. The protocol applied is that described in Example 29. […]

[4] = target: T1, Human tyrosinase; assay: In vitro test of inhibition of human tyrosinase from melanocyte extracts (L-dopa/MBTH, OD 490 nm); type: biochemical; settings: melanocyte extract; for inhibition at 100 µM: 10^−4M, read-out: Inhibition of human tyrosinase, percentage of inhibition, Mean 10^−4M; for inhibition at 10 µM: 10^−5M, read-out: Inhibition of human tyrosinase, percentage of inhibition, Mean 10^−5M
Experimental: Human tyrosinase, obtained from melanocyte extracts obtained from healthy donors, catalyses the formation of L-dopaquinone from L-dopa. Now, the L-dopaquinone may be quantified by visible spectrophotometry at 490 nm by means of a chromogen: 3-methyl-2-benzothiazolinone hydrazone (MBTH).
The melanocyte extract is obtained after lysis of cell membranes of the normal human melanocytes, performed via a thermal shock. The supernatant is recovered and then incubated with MBTH (Sigma) and L-dopa (Sigma). […]

[5] = test system: fungal tyrosinase; assay: In vitro test of inhibition of isolated fungal tyrosinase (L-dopa, dopachrome OD 490 nm); type: biochemical; settings: 490 nm
From the text: Tyrosinase catalyses the formation of L-dopaquinone and then of dopachrome from L-dopa. Now, dopachrome is a coloured compound that may be quantified by visible spectrophotometry at 490 nm. The use of an active agent capable of modifying the enzymatic activity will be reflected by a variation in the optical density at 490 nm. The to ratio of the rates of formation of dopachrome makes it possible to determine precisely the activations or inhibitions obtained with the various test molecules.
The sample to be tested is incubated in the presence of fungal tyrosinase (Sigma), for 5 minutes with stirring. L-Dopa (Sigma), a tyrosinase substrate, is incubated for 10 minutes in the absence of light, in the presence or absence of the test molecules. The calculation of the percentage of inhibition is performed by relating the test OD to the OD of the negative control without molecule.
In the context of this in vitro test, the p-coumaric acid derivatives were tested at final concentrations of 10^−4M and 10^−5M.

[6] = 10^−4M, 24 hours, read-out: Inhibition of human tyrosinase after application to normal human melanocytes, percentage of inhibition, Mean 10^−4M
[7] = 10^−5M, 24 hours, read-out: Inhibition of human tyrosinase after application to normal human melanocytes, percentage of inhibition, Mean 10^−5M
[8] = Donor 1, fair phototype, 10^−4 M, read-out: Inhibition of tyrosinase, Mean 10^−4 M, Donor 1
[9] = Donor 1, fair phototype, 10^−5 M, read-out: Inhibition of tyrosinase, Mean 10^−5 M, Donor 1
[10] = Donor 2, fair phototype, 10^−4 M, read-out: Inhibition of tyrosinase, Mean 10^−4 M, Donor 2
[11] = Donor 2, fair phototype, 10^−5 M, read-out: Inhibition of tyrosinase, Mean 10^−5 M, Donor 2
[12] = Donor 3, fair phototype, 10^−4 M, read-out: Inhibition of tyrosinase, Mean 10^−4 M, Donor 3
[13] = Donor 3, fair phototype, 10^−5 M, read-out: Inhibition of tyrosinase, Mean 10^−5 M, Donor 3
[14] = Donor S, fair phototype, 10^−4 M, read-out: Inhibition of tyrosinase, Mean 10^−4 M, Donor S
[15] = Donor S, fair phototype, 10^−5 M, read-out: Inhibition of tyrosinase, Mean 10^−5 M, Donor S

inhibition at 100 µM [3, 6] [%] | inhibition at 10 µM [3, 7] [%] | inhibition at 100 µM [4] [%] | inhibition at 10 µM [4] [%] | Inhibition of fungal tyrosinase, percentage of inhibition, Mean 10^−4M [5] [%] | Inhibition of fungal tyrosinase, percentage of inhibition, Mean 10^−5M [5] [%] | inhibition at 100 µM [3, 8] [%] | inhibition at 10 µM [3, 9] [%] | inhibition at 100 µM [3, 10] [%] | inhibition at 10 µM [3, 11] [%] | inhibition at 100 µM [3, 12] [%] | inhibition at 10 µM [3, 13] [%] | inhibition at 100 µM [3, 14] [%] | inhibition at 10 µM [3, 15] [%] | Structure (SMILES) | Percentages of viability, Mean 10^−4 M [1] [%] | Percentages of viability, Mean 10^−5 M [1] [%] | Antiradical activity, Mean 10^−5 M [2] [%] | also measured
39.8 | 15.8 | 6.42 | 4.92 | 1.35 | 0 | – | – | – | – | – | – | – | – | COc1cc(/C=C/C(=O)NCc2ccc(O)c(OC)c2)ccc1O [Example 4, N-trans-feruloyl-4-hydroxy-3-methoxyphenylmethylamine] | 101.94 | 99.55 | 15.72 | –
100 | 24.6 | 22.1 | 11.9 | 27.42 | 13.06 | 65.3 | 0 | 61.5 | 0 | 70.7 | 22.2 | 100 | 24.6 | O=C(/C=C/c1ccc(O)c(O)c1)NCCc1ccc(O)cc1 [Example 9, N-trans-caffeoyltyramine] | 77.9 | 94.96 | 41.17 | inhibition at 1000 µM ([3]; B103, Donor B, brown phototype, read-out: Inhibition of tyrosinase, Mean Donor B, 10^−3 M): 94.5%; inhibition at 100 µM ([3]; B104, Donor B, brown phototype, 10^−4 M, read-out: Inhibition of tyrosinase, Mean Donor B, 10^−4 M): 44.4%; inhibition at 1000 µM ([3]; Donor A, brown phototype, read-out: Inhibition of tyrosinase, Mean Donor A, 10^−3 M): 98.9%; inhibition at 100 µM ([3]; Donor A, brown phototype, 10^−4 M, read-out: Inhibition of tyrosinase, Mean Donor A, 10^−4 M): 44.6%; inhibition at 10 µM ([3]; Donor A, brown phototype, 10^−5 M, read-out: Inhibition of tyrosinase, Mean Donor A, 10^−5 M): 21.3%; inhibition at 10 µM ([3]; Donor B, brown phototype, 10^−5 M, read-out: Inhibition of tyrosinase, Mean Donor B, 10^−5 M): 18.9%; inhibition at 100 µM ([3]; donor of black phototype, 10^−4 M, read-out: Inhibition, Mean Negroid skin, 10^−4 M): 49.3%; inhibition at 10 µM ([3]; donor of black phototype, 10^−5 M, read-out: Inhibition, Mean Negroid skin, 10^−5 M): 16%
66.8 | 0 | 9.91 | 11.4 | 16.23 | 14.72 | 44.6 | 0 | 0 | 0.15 | 14.4 | 3.32 | 66.8 | 0 | O=C(/C=C/c1ccc(O)c(O)c1)NCCc1ccc(O)c(O)c1 [Example 10, N-trans-caffeoyldopamine] | 84.62 | 102.1 | 57.45 | –
– | 28 | 0 | 8.68 | 12.03 | 3.7 | – | – | – | – | – | – | – | – | COc1cc(CNC(=O)/C=C/c2ccc(O)c(O)c2)ccc1O [Example 11, N-trans-caffeoyl-4-hydroxy-3-methoxyphenylmethylamine] | – | 116.99 | 59.2 | –
– | 5.63 | 6.53 | 0 | 17.32 | 20.26 | – | – | – | – | – | – | – | – | COc1ccc(CCNC(=O)/C=C/c2ccc(O)c(O)c2)cc1OC [Example 12, N-trans-caffeoyl-3,4-dimethoxydopamine] | – | 109.84 | 44.51 | –
